Legend:
N-cadherin [1] = test: In vitro ε-cleavage assay, membranes from mouse fibroblasts or N2a cell cultures; type: biochemical; design: dose or concentration left out as unconfirmed; conditions: cultures incubated 16 hours with L-685,458; membranes 37° C. 2 hours
Description: (§1) In vitro γ-secretase-like ε-cleavage assay. Cells were washed in PBS, resuspended in 1 ml of 4° C. hypotonic buffer (10 mM MOPS, pH 7.0, 10 mM KCl) and homogenized on ice. A post-nuclear supernatant was prepared by centrifugation at 1000×g for 15 minutes at 4° C. Crude membranes were isolated from the post-nuclear supernatant by centrifugation at 16,000×g for 40 minutes at 4° C. The membranes were then resuspended in […] of assay buffer (150 mM sodium citrate, pH 6.4, 1× Complete protease inhibitor cocktail), and incubated at 37° C. for 2 hours. Samples were either analyzed directly by WB or separated into pellet (P100) and supernatant (S100) fractions by ultracentrifugation for 1 hour at 100,000×g at 4° C. The S100 and P100 fractions were then analyzed by WB.
To detect the product of the PS1-dependent cleavage of N-cadherin, an in vitro assay that uses incubation of membrane fractions to detect the ICD product of the E-cleavage of APP was used. (Gu et al. (2001) J. Biol. Chem. 276:35235-35238; McLendon et al. (2000) FASEB J. 14:2383-2386). […]

[2] = tested on: CRE-dependent transactivation; test: CRE-dependent luciferase activity in HEK293 cultures stably transfected with WT-PS1; type: cell-based, human; conditions: presence of L-685,458, FIG. 9B
Description: Transactivation assays. CRE-dependent transactivation was measured in the absence or presence of overexpression of PKA (pFC-PKA, Stratagene) by cotransfection with CRE-luciferase reporter plasmid (pCRE-Luc, Stratagene) and pSV-β-galactosidase vector (Promega) to evaluate transfection efficiency. CHOP-mediated transactivation was measured by cotransfection with the Gal4-fusion trans-activator plasmids (pFA-CHOP and pFR-Luc, Stratagene). 30 hours after transfection, luciferase and β-galactosidase activities were determined following manufacturer's instructions using a TD-20/20 luminometer (Turner Designs) and a DU-64 spectrophotometer (Beckman). Values were normalized to β-galactosidase activity and protein concentration.
HEK293 cultures stably transfected either with vector or WT-PS1 were co-transfected with pFC-PKA, pCRE-Luc, and pSV-β-galactosidase in the presence or absence of L-685,458 and then processed for CRE-dependent luciferase activity. Data in FIGS. 9A and B are the mean+/−s.e. of 4 experiments normalized to β-galactosidase activity and protein concentration. *, P<0.05; ***, P<0.001 (Student's t test).

E-cadherin = E-cadherin processing in E-cadherin-transfected PS1+/+ fibroblasts (Western blot, C36); type: cell-based, mouse; conditions: L-685,458 0.5 μM, 6 hours, compared to non-treated controls
Description: Cell Cultures and transfections. Cells were grown in Dulbecco's Modified Eagle Medium (DMEM) plus 10% fetal bovine serum, penicillin and streptomycin in 5% CO2 at 37° C. Fibroblast cell lines derived either from wild-type (WT) (PS1+/+) or PS1 knock-out (PS1−/−) mice were stably transfected with human E-cadherin as described by Baki et al., (2001). A431 cells were from American Type Culture Collection. Stable transfectants of PS1 cDNA in HEK293 cells were prepared as described by Georgakopoulos et al., (1999). A431D cells stably transfected with wild-type or GGG759-761AAA mutant E-cadherin were provided by Dr. A. B. Reynolds.
Immunoprecipitations (IPs), immunoblotting, immunofluorescence and confocal microscopy. For WB analysis of cell extracts, cells were washed with PBS and then solubilized in RIPA buffer. For IPs cells were solubilized in Hepes buffer (25 mM Hepes [pH 7.4], 150 mM NaCl, 1× Complete protease inhibitor cocktail, Roche) containing 1% digitonin (IPs with I-R222 and PI-R222 antibodies) or 1% Triton X-100 (IPs with β-catenin and desmoglein antibodies). Following centrifugation at 17,000×g for 10 min, supernatants (1 mg protein) were pre-cleared with protein A- or protein G-agarose (Pierce) for 2 hours. […] IPs were washed with Hepes buffer containing either 1% digitonin or 1% Triton X-100 and analyzed by SDS-PAGE. […]

N-cadherin [3] = test: In vitro γ-secretase-like ε-cleavage assay, membranes of WT-PS1-transfected HEK293 cells; type: biochemical, human; conditions: membranes from WT-PS1-transfected clone #7, presence of L-685,458, 37° C. 2 hours
Description: as §1
Membranes from PS1−/− (FIG. 7C, lane 1) or PS1+/+ (FIG. 7C, lanes 2-4) fibroblasts or from N2a cell cultures (FIG. 7C, lanes 5-6) incubated for 16 hours in the absence or presence of DMSO or L-685,458 ([…]), were incubated at 37° C. for 2 hours, separated by centrifugation in a pellet (P100, FIG. 7C, upper panels) and a soluble (S100, FIG. 7C, lower panels) fractions and then probed on WBs with C32 antibody. […]

With `CC(C)C[C@H](NC(=O)[C@H](Cc1ccccc1)C[C@@H](O)[C@H](Cc1ccccc1)NC(=O)OC(C)(C)C)C(=O)N[C@@H](Cc1ccccc1)C(N)=O` [L-685,458] the “soluble 35 kDa peptide N-Cad/CTF2” value (N-cadherin [1]) was “completely absent”, the “decrease of CRE-dependent transactivation caused by PS1 overexpression” value [2] was “reversed” and the “cellular E-Cad/CTF1” value (E-cadherin) was “increased cellular E-Cad/CTF1”. For the same molecule, the N-Cad/CTF2 production (N-cadherin [3]) was “no N-Cad/CTF2 was detected”.

From patent publication US7884067B2, “Peptides derived from cadherin and methods of use thereof” (Mount Sinai School of Medicine of New York University, priority 2001, dated 2011)
